Experimental data taken from US20110263647A1 (AMGEN INC., priority 2009, published 2011).
Counter-ions that a name gives are not always drawn.

Each compound was assayed against T1, PKBα (Homo sapiens, UniProt P31749) (assay: PKB kinase assay (P33-labeled ATP, peptide substrate, filter plate)). Conditions: with respect to PKBα.
T1 construct: fused on or other part: His6 tag is likely on the Upstate products
Type: biochemical
Source text: The kinase assay for evaluating PKB activity comprises active PKB enzymes, a PKB specific substrate, and P^33-labeled ATP. Two form of PKBα enzymes were used, the full length PKBα and a kinase domain of PKBα with pleckstrin domain (amino acids 1-117) deleted. Both PKB enzymes were obtained from Upstate cell signaling solutions (Cat.# 14-276 and 14-341). The PKB substrate used is a synthetic peptide (ARKRERTYSFGHHA (SEQ ID NO: 1)) as described in Obata et al., J. Biol. Chem. 275 (46), 36108-36115 (2000). The phosphorylated substrate was captured by a phosphocellulose membrane filter plate (MILLIPORE) and measured by a Wallac Microbeta liquid scintillation counter (Perkin Elmer). Table 1 provides the IC50 values obtained for each of the examples with respect to PKBα.

T1 sequence (P31749 118-472 limits assumed): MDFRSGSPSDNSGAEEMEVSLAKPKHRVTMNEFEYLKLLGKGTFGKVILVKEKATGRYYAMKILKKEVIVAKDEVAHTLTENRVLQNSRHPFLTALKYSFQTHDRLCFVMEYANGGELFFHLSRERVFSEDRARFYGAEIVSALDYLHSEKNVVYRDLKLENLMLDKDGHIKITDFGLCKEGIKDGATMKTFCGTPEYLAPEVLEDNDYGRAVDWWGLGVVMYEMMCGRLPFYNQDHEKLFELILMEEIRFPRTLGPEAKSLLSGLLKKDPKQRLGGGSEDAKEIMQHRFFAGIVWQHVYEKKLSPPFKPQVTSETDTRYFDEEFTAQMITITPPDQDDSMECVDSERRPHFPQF

Compound	IC50 [nM]
COCc1nc(NC[C@@H](N)Cc2ccc(C(F)(F)F)cc2)sc1-c1ccc2cnc(F)cc2c1 [Example 24, N—((S)-2-Amino-3-(4-(trifluoromethyl)phenyl)propyl)-5-(3-fluoroisoquinolin-6-yl)-4-(methoxymethyl)thiazol-2-amine]	< 50
N[C@H](CNc1ncc(-c2ccc3cnc(F)cc3c2)s1)Cc1cnc(C(F)(F)F)nc1 [Example 26, N—((S)-2-Amino-3-(2-(trifluoromethyl)pyrimidin-5-yl)propyl)-5-(3-fluoroisoquinolin-6-yl)thiazol-2-amine]	< 50
N[C@H](CNc1ncc(-c2ccc3cnc(F)cc3c2)s1)Cn1cnc(C(F)(F)F)c1 [Example 28, N—((R)-2-Amino-3-(4-(trifluoromethyl)-1H-imidazol-1-yl)propyl)-5-(3-fluoroisoquinolin-6-yl)thiazol-2-amine]	50 to 1000
N[C@H](CNc1ncc(-c2ccc3cnc(F)cc3c2)s1)CN1CCCC(C(F)(F)F)C1 (stereo partly drawn) [Example 30, N—((R)-2-Amino-3-((3S)-(trifluoromethyl)piperidin-1-yl)propyl)-5-(3-fluoroisoquinolin-6-yl)thiazol-2-amine]	1000 to 10000
N[C@H](CNc1ncc(-c2ccc3cnc(F)cc3c2)s1)Cc1ccc(C(F)(F)F)nc1Cl [Example 31, N—((S)-2-Amino-3-(2-chloro-6-(trifluoromethyl)pyridin-3-yl)propyl)-5-(3-fluoroisoquinolin-6-yl)thiazol-2-amine]	< 50
COC[C@@H](c1ccc(C(F)(F)F)cc1)[C@H](N)CNc1ncc(-c2ccc3cnc(F)cc3c2)s1 [Example 32, N-((2S,3S)-2-Amino-4-methoxy-3-(4-(trifluoromethyl)phenyl)butyl)-5-(3-fluoroisoquinolin-6-yl)thiazol-2-amine]	< 50
CS(=O)(=O)C[C@@H](c1ccc(C(F)(F)F)cc1)[C@H](N)CNc1ncc(-c2ccc3cnc(F)cc3c2)s1 [Example 34, N-((2S,3S)-2-Amino-4-(methylsulfonyl)-3-(4-(trifluoromethyl)phenyl)butyl)-5-(3-fluoroisoquinolin-6-yl)thiazol-2-amine]	50 to 1000
CC(C)(C)OC(=O)N[C@@H](Cc1ccc(C(F)F)cc1)CN(C(=O)OC(C)(C)C)c1ncc(-c2ccc3cnc(F)cc3c2)s1 [Example 41, tert-Butyl ((2S)-2-((tert-butoxycarbonyl)amino)-3-(4-(difluoromethyl)phenyl)propyl)(5-(3-fluoro-6-isoquinolinyl)-1,3-thiazol-2-yl)carbamate]	1000 to 10000

Results, then the compound that gave them:

IC50 [nM]	Compound
< 50	CC#Cc1nc(NC[C@@H](N)Cc2ccc(C(F)(F)F)nc2)sc1-c1ccc2cnc(F)cc2c1 [Example 35, N—((S)-2-Amino-3-(6-(trifluoromethyl)pyridin-3-yl)propyl)-5-(3-fluoroisoquinolin-6-yl)-4-(prop-1-ynyl)thiazol-2-amine]
< 50	N[C@H](CNc1ncc(-c2ccc3cnc(F)cc3c2)s1)[C@@H](O)c1ccc(C(F)(F)F)cc1 [Example 37, (1S,2R)-2-Amino-3-((5-(3-fluoro-6-isoquinolinyl)-1,3-thiazol-2-yl)amino)-1-(4-(trifluoromethyl)phenyl)-1-propanol trifluoroacetate]
< 50	COCO[C@@H](c1ccc(C(F)(F)F)cc1)[C@H](N)CNc1ncc(-c2ccc3cnc(F)cc3c2)s1 [Example 39]
50 to 1000	N[C@H](CNc1ncc(-c2ccc3cnc(F)cc3c2)s1)Cc1cnc(F)c(Cl)c1 [Example 40, N—((S)-2-Amino-3-(5-chloro-6-fluoropyridin-3-yl)propyl)-5-(3-fluoroisoquinolin-6-yl)thiazol-2-amine]
< 50	N[C@H](CNc1ncc(-c2ccc3cnc(F)cc3c2)s1)Cc1ccc(C(F)F)cc1 [Example 42, (2S)-3-(4-(difluoromethyl)phenyl)-N-1-(5-(3-fluoro-6-isoquinolinyl)-1,3-thiazol-2-yl)-1-2-propanediamine trifluoroacetate]
